The values below come from patent publication US5486516A, “Furopyrimidine derivatives” (DowElanco, priority 1993, dated 1996).

The test system of test [1] is Botrytis cinerea (gray mold). Briefly: Plant pathology screen (Test 1), gray mold on grape berries. The note with it: read-out: GRAY MOLD control rating.
Test [2] concerns Puccinia recondita tritici (leaf rust). Kind of test: Plant pathology screen (Test 1), leaf rust on wheat. The conditions noted are these: in Triticum aestivum, foliar, read-out: LEAF RUST control rating.
Procedure: This screen was used to evaluate the efficacy of the present compounds against a variety of different organisms that cause plant diseases.
(§1) The test compounds were formulated for application by dissolving 50 mg of the compound into 1.25 ml of solvent. The solvent was prepared by mixing 50 ml of "Tween 20" (polyoxyethylene (20) sorbitan monolaurate emulsifier) with 475 ml of acetone and 475 ml of ethanol. The solvent/compound solution was diluted to 125 ml with deionized water. The resulting formulation contains 400 ppm test chemical. Lower concentrations were obtained by serial dilution with the solvent-surfactant mixture.
(§2) The formulated test compounds were applied by foliar spray.
(§3) The formulated technical compounds were sprayed on all foliar surfaces of the host plants (or cut berry) to past run-off. Single pots of each host plant were placed on raised, revolving pedestals in a fume hood. Test solutions were sprayed on all foliar surfaces. All treatments were allowed to dry and the plants were inoculated with the appropriate pathogens within 2-4 hours.
(§4) The effectiveness of test compounds in controlling disease was rated using the following scale.
For test [3], the system named is Pseudoperonospora cubensis (downy mildew). Kind of test: Plant pathology screen (Test 1), downy mildew on squash. The conditions noted are these: foliar, read-out: DOWN MDEW control rating.
Test [4] concerns melon aphids (Aphis gossvpii Glover). Kind of test: Mite/insect screen, melon aphids. It counts as in vivo. The conditions noted are these: Aphis, sprayed leaves, read-out: MA results (percent mortality); for mortality at 400 ppm: rate 400 ppm. An outline of the steps: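 Percent mortality of melon aphids was assessed after standard exposure periods. Infested squash cotyledons had been sprayed on both leaf surfaces until runoff at 10 psi with water-diluted test solutions. Compounds were formulated in acetone/alcohol (50:50) containing emulsifiers.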

The subject of test [5] is southern armyworm (Spodopetra eridania Cramer). Kind of test: Mite/insect screen, Southern armyworm. It is filed as in vivo. The conditions noted are these: Spodoptera eridania, sprayed leaves, read-out: SAW results (percent mortality); for mortality at 400 ppm: rate 400 ppm. An outline of the steps:
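Southern armyworm larvae placed in Petri dishes with two excised squash leaves that had been sprayed to runoff (10 psi) with emulsified compound and air-dried for 1 h. Mortality in percent recorded after a standard exposure period; formulation acetone/alcohol plus Toximul R and S, water-diluted.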

Test [6] relates to Southern corn rootworm (Diabrotica undecimpuctata howardi Barber). Kind of test: Mite/insect screen, corn rootworm. The conditions noted are these: Diabrotica, soil, read-out: CRW results (percent mortality); for mortality at 24 ppm: CRW rate 24.00 ppm. It counts as in vivo. In a few lines: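 Five 2-3 instar larvae per cup were placed on sandy soil (15 g, with presoaked corn seed) treated 6–12 h earlier with 1 mL test solution, an emulsified acetone/alcohol formulation diluted in water. Cups kept at 23° C; mortality and phytotoxicity assessed as percent after standard exposures.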

Test [7] has as its system Erysiphe graminis tritici (powdery mildew). Briefly: Plant pathology screen (Test 1), powdery mildew on wheat. The note with it: Blumeria graminis, in Triticum aestivum, foliar, read-out: POWD MDEW control rating.
Procedure: as §1, §2, §3, §4
In test [8] the test system is Pyricularia oryzae (rice blast). Briefly: whole plant or invertebrate. It is filed as in vivo. The conditions noted are these: foliar, read-out: RICE BLAST control rating.
For test [9], the system named is Twospotted spider mites (Tetranychus urticae Koch). Kind of test: Mite/insect screen, twospotted spider mites. The conditions noted are these: Tetranychus urticae, sprayed leaves, read-out: SM results (percent mortality); for mortality at 400 ppm: rate 400 ppm. It is filed as in vivo. An outline of the steps: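 Percent mortality, along with phytotoxicity, was read after standard exposure periods. Beforehand, mites established on both surfaces of squash cotyledons received a runoff spray (10 psi) of water-diluted compound formulated in acetone/alcohol with sulfonate/nonionic emulsifiers.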

As a reminder, the mortality is the share of the test organisms that died. With `Cc1oc2ncnc(NCCc3ccc(OCC(F)(F)F)cc3)c2c1C` [Example 73, 5,6-dimethyl-N-[2-[4-(2,2,2-trifluoroethoxy)phenyl]ethyl]furo[2,3-d]pyrimidin-4-amine], the pest or weed control at 400 µg/mL lay within 0 to 19% in test [1]; 20 to 89% in [2]; 20 to 89% in [3]; 0 to 19% in test [7]; 0 to 19% in test [8]. The mortality at 400 ppm in test [4] came out at 90%; in test [5], 100%; in [9] it was 0%. Besides, the mortality at 24 ppm in [6] was found to be 0%.
On to `CCCC(C)(CC)Oc1ccc(CCOc2ncnc3oc(C)c(C)c23)cc1` (stereo not shown) [Example 74, 5,6-dimethyl-4-[2-[4-(1-ethyl-1-methylbutoxy)phenyl]ethoxy]furo[2,3-d]pyrimidine], for which the pest or weed control at 400 µg/mL in [1] fell in the range of 0 to 19%; in test [2], 0 to 19%; in test [3], 20 to 89%; in [7], 0 to 19%; in [8], 0 to 19%. The results for the mortality at 400 ppm in test [4], in test [5] and in test [9] were 90%, 0% and 100%, respectively. The mortality at 24 ppm in test [6] amounted to 0%.
As for `Cc1oc2ncnc(OCCc3ccc4c(c3)OCCO4)c2c1C` [Example 75, 5,6-dimethyl-4-[2-[benzo[b]-1,4-dioxan-6-yl]ethoxy]furo[2,3-d]pyrimidine], the pest or weed control at 400 µg/mL in test [1] was 0 to 19%; in [2] it was 0 to 19%; in test [3], 20 to 89%; in [7], 0 to 19%; in test [8] it was 0 to 19%. Besides, the mortality at 400 ppm in [4] amounted to 0%; in test [5], 40%; in test [9] it was 0%. Further, the mortality at 24 ppm in [6] is 0%.
On to `Cc1oc2ncnc(OCCc3ccccc3C(F)(F)F)c2c1C` [Example 76, 5,6-dimethyl-4-[2-[2(trifluoromethyl)phenyl]ethoxy]furo[2,3-d]pyrimidine], for which the pest or weed control at 400 µg/mL lay within 0 to 19% in [1]; 0 to 19% in test [2]; 20 to 89% in [3]; 90 to 100% in test [7]; 0 to 19% in [8]. Also, the mortality at 400 ppm in [4], in test [5] and in test [9] was 0% in each case. The mortality at 24 ppm in test [6] was determined as 60%.
As for `Cc1oc2ncnc(NC(C)(C)Cc3ccccc3)c2c1C` [Example 77, 5,6-dimethyl-N-[1,1-dimethyl-2-phenylethyl]furo[2,3-d]pyrimidin-4-amine], the pest or weed control at 400 µg/mL in test [1] was 0 to 19%; in test [2], 90 to 100%; in test [3], 90 to 100%; in test [7], 90 to 100%; in [8], 90 to 100%. The mortality at 200 ppm in test [4] (rate 200 ppm) was found to be 100%; in test [5] (rate 200 ppm), 0%; in test [9] (rate 200 ppm) it was 50%. Moreover, the mortality at 400 ppm stood at 80% in [4], 0% in test [5] and 90% in test [9]. For the same compound, the mortality at 12 ppm in test [6] (CRW rate 12.00 ppm) stood at 0%. The mortality at 24 ppm in test [6] was 0%.
Take `Cc1coc2ncn(CCc3ccc4ccccc4c3)c(=N)c12` [Example 79, 5-methyl-3-[2-(2-naphthyl)ethyl]furo[2,3-d]pyrimidin-4(3H)-imine]: the pest or weed control at 400 µg/mL is 0 to 19% in test [1]; 20 to 89% in [2]; 90 to 100% in test [3]; 0 to 19% in test [7]; 20 to 89% in test [8]. The mortality at 400 ppm in test [4], in [5] and in test [9] was 0% in each case. For the same compound, the mortality at 24 ppm in [6] turned out to be 0%.
